Patent US20170266168A1, “METHODS FOR PREVENTING OR TREATING OSTEOARTHRITIS” (RUSH UNIVERSITY MEDICAL CENTER, priority 2014, published 2017)

How the values were obtained:
[1] = test system: whole knee joints of Has1KO mice with patellar groove cartilage injury; assay: Whole joint gene expression (TAQMAN qPCR, RT2 Profiler NF-κB and Fibrosis arrays) after cartilage injury; type: in vivo
Procedure: (§1) Under approved IACUC protocols, a confined non-bleeding cartilage injury was created in the patellar groove of the right legs of 12-wk old male WT and Has1KO (C57Bl6) mice. Pirfenidone was provided in the chow (5 mg/g, Harlan) starting 3 days after surgery, and mice ingested about 600 mg pirfenidone/kg body weight daily. Joint tissue pathology was evaluated by photography of joint tissue surfaces after India Ink application (FIG. 1) and by histology of the intact joint with Safranin-O and Masson's Trichrome stained sections (FIG. 2.) For gene expression studies, skin and muscle was removed and whole knee joints were stored in RNALater. Inventoried TAQMAN® probes for Gapdh, Has2, Tnfaip6, Col1a1, Col3a1 and Vcan V2 were used to measure expression at 0, 7, 14, and 28 days post-injury, and Qiagen RT2 Profiler PCR Assay mouse arrays for NF-κB (PAMM-225ZA) and Fibrosis (PAMM-120ZA) pathways were used to assay whole joints at 21-28 days after injury, with and without pirfenidone treatment. Relative mRNA abundance was calculated as 1000×2−ΔCt, with ΔCt defined as Ct of the gene of interest minus Ct of Gapdh. Fold change was defined as abundance at a time point divided by abundance in the naïve condition for the same genotype.

[2] = test system: Has1KO mice with patellar groove cartilage injury; assay: Joint tissue pathology by histology (Safranin-O, Masson's Trichrome) after cartilage injury; type: in vivo
Procedure: as §1
In the same way, the effects on expression of pro-inflammatory and pro-fibrotic genes were accompanied by profound effects on tissue pathology. A histologic examination of sagittal sections across the entire joint was done on 3 mice from each group.

injured Has1KO joints = assay: Micro-computed Tomography of bone structure after cartilage injury; type: in vivo, mice; conditions: femur posterior to trochlear groove, day 28
Excerpt: The effect of pirfenidone administration on bone structure was examined using Micro-computed Tomography (micro-CT) to identify bone differences (FIG. 7). The regions of interest examined included the trabecular bone in the femur directly posterior to the trochlear groove, where the defect was created (FIG. 8) and the cortical bone of the femoral midshaft (FIG. 9.) The trabecular bone parameters, obtained using micro-CT, indicate a recovery in injured Has1KO joints of bone-to-total volume, connectivity density, trabecular number, trabecular thickness, and trabecular separation to naive levels, surpassing even injured WT in bone recovery, and are shown in FIG. 10.

[3] = 24 day drug treatment post injury
[4] = sagittal sections across entire joint, 3 mice per group

Cc1ccc(=O)n(-c2ccccc2)c1 [pirfenidone, 5-methyl-1-phenylpyridin-2-one]
activation of anti-apoptotic, anti-fibrotic and matrix remodeling genes (Sod2, Ccl12, Il13ra2, Serpine1, Timp1) [1, 3]: enhanced | expression of genes in the Nf-κB and Fibrosis pathways (arrays of 84 genes each) [1, 3]: marked effect | expression of genes linked to the aberrant wound healing responses ([1]; pirfenidone in chow 5 mg/g (about 600 mg/kg daily) from 3 days after surgery, whole joint): normalized | Has2 expression (delayed and more prolonged than in WT) ([1]; pirfenidone in chow, whole joint): normalized | Tnfaip6 expression (enhanced at 2 weeks in Has1KO) ([1]; pirfenidone in chow, whole joint, 2 weeks): normalized | Vcan V2 expression (markedly inhibited in Has1KO) ([1]; pirfenidone in chow, whole joint, 7 days): inhibition was corrected | loss of cartilage and subchondral bone in the joint after cartilage injury ([2]; Has1KO, 4 weeks post-injury, Safranin-O stained): reduces | Safranin-O staining in the cartilages (including growth plates) [2, 4]: marked enhancement | appearance of fibrotic tissues [2, 4]: blocked | trabecular bone parameters (bone-to-total volume, connectivity density, trabecular number, thickness, separation) (injured Has1KO joints): recovery
